Experimental findings from ChEMBL document CHEMBL4052759, “Discovery of DS79182026: A potent orally active hepcidin production inhibitor” (Bioorg Med Chem Lett, 2017) are described below.

The species named for experiment [1] is Homo sapiens. Briefly: Inhibition of p70S6K (unknown origin) at 0.49 uM relative to control.
The target of experiment [2] is Cyclin-dependent kinase 9 (Homo sapiens) (UniProt P50750). As to the kind of experiment: Inhibition of CDK9 (unknown origin) at 0.49 uM relative to control.
Experiment [3] addresses Homeodomain-interacting protein kinase 3 (Homo sapiens) (UniProt Q9H422). Briefly: Inhibition of HIPK3 (unknown origin) at 0.49 uM relative to control.
Experiment [4] deals with Death-associated protein kinase 1 (Homo sapiens) (UniProt P53355). As to the kind of experiment: Inhibition of DAPK1 (unknown origin) at 0.49 uM relative to control.
In experiment [5] the target is Phosphorylase b kinase gamma catalytic chain, liver/testis isoform (Homo sapiens) (UniProt P15735). Briefly: Inhibition of PhKg2 (unknown origin) at 0.49 uM relative to control.
Experiment [6] concerns the target Misshapen-like kinase 1 (Homo sapiens) (UniProt Q8N4C8). Briefly: Inhibition of MINK (unknown origin) at 0.49 uM relative to control.
The target in experiment [7] is Tyrosine-protein kinase Lyn (Homo sapiens) (UniProt P07948). As to the kind of experiment: Inhibition of LYN (unknown origin) at 0.49 uM relative to control.
For experiment [8], the target named is Tyrosine-protein kinase Mer (Homo sapiens) (UniProt Q12866). Briefly: Inhibition of Mer (unknown origin) at 0.49 uM relative to control.
Experiment [9] addresses Ribosomal protein S6 kinase alpha-1 (Homo sapiens) (UniProt Q15418). Briefly: Inhibition of RSK1 (unknown origin) at 0.078 uM relative to control.
For experiment [10], the target named is Serine/threonine-protein kinase MARK1 (Homo sapiens) (UniProt Q9P0L2). As to the kind of experiment: Inhibition of MARK1 (unknown origin) at 0.078 uM relative to control.
Experiment [11] addresses T1, Serine/threonine-protein kinase 3 (Homo sapiens) (UniProt Q13188).
T1 sequence (whole entry): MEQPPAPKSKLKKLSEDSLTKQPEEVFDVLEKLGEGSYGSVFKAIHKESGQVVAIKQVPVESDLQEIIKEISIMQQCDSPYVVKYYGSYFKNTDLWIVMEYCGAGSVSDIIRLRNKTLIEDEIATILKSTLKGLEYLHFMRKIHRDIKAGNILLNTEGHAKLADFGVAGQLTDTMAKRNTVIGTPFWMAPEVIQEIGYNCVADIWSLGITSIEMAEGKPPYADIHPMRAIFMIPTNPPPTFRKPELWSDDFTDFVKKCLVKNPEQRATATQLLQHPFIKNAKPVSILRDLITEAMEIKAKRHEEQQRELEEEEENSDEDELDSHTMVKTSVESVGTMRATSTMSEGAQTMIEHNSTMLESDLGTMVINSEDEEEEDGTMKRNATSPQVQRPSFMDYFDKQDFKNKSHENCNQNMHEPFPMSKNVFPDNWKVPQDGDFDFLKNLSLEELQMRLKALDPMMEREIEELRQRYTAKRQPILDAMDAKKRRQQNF
As to the kind of experiment: Inhibition of MST2 (unknown origin) at 0.078 uM relative to control.

For experiment [12], the target named is Fibroblast growth factor receptor 1 (Homo sapiens) (UniProt P11362). Briefly: Inhibition of FGFR1 (unknown origin) at 0.078 uM relative to control.
Experiment [13] deals with Tyrosine-protein kinase Lyn (Homo sapiens) (UniProt P07948). Briefly: Inhibition of LYN (unknown origin) at 0.078 uM relative to control.
The species named for experiment [14] is Homo sapiens. Briefly: Inhibition of PKA (unknown origin) at 0.45 uM relative to control.
Experiment [15] concerns the target Protein kinase C eta type (Homo sapiens) (UniProt P24723). As to the kind of experiment: Inhibition of PKC-eta (unknown origin) at 0.45 uM relative to control.
Experiment [16] deals with T2, MAP kinase-activated protein kinase 5 (Homo sapiens) (UniProt Q8IW41).
T2 sequence (whole entry): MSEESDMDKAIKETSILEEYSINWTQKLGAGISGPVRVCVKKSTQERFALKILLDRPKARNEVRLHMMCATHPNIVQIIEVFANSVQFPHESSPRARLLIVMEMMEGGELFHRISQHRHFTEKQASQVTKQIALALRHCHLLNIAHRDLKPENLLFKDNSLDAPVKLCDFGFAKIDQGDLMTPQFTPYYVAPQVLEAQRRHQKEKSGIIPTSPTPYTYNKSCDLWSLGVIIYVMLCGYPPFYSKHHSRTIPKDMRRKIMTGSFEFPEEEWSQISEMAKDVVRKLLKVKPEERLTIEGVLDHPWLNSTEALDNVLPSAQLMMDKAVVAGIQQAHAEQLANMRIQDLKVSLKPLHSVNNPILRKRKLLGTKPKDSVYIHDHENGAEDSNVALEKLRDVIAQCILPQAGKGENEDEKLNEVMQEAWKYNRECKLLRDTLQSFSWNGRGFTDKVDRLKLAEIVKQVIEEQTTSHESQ
As to the kind of experiment: Inhibition of PRAK (unknown origin) at 0.45 uM relative to control.

For experiment [17], the target named is Casein kinase I isoform gamma-2 (Homo sapiens) (UniProt P78368). As to the kind of experiment: Inhibition of Casein kinase 1g2 (unknown origin) at 0.45 uM relative to control.
Experiment [18] addresses Homeodomain-interacting protein kinase 2 (Homo sapiens) (UniProt Q9H2X6). Briefly: Inhibition of HIPK2 (unknown origin) at 0.45 uM relative to control.
For experiment [19], the target named is Vascular endothelial growth factor receptor 1 (Homo sapiens) (UniProt P17948). Briefly: Inhibition of FLT1 (unknown origin) at 0.45 uM relative to control.
The target in experiment [20] is Receptor-type tyrosine-protein kinase FLT3 (Homo sapiens) (UniProt P36888). As to the kind of experiment: Inhibition of FLT3 (unknown origin) at 0.45 uM relative to control.
Experiment [21] addresses Receptor tyrosine-protein kinase erbB-4 (Homo sapiens) (UniProt Q15303). Briefly: Inhibition of HER4 (unknown origin) at 0.45 uM relative to control.
Experiment [22] deals with Platelet-derived growth factor receptor alpha (Homo sapiens) (UniProt P16234). Briefly: Inhibition of PDGFR alpha (unknown origin) at 0.45 uM relative to control.
Experiment [23] has as its target MAP kinase-activated protein kinase 3 (Homo sapiens) (UniProt Q16644). Briefly: Inhibition of MAPKAPK3 (unknown origin) at 0.45 uM relative to control.
The target of experiment [24] is MAP kinase-interacting serine/threonine-protein kinase 1 (Homo sapiens) (UniProt Q9BUB5). Briefly: Inhibition of MNK1 (unknown origin) at 0.45 uM relative to control.
The target of experiment [25] is MAP kinase-interacting serine/threonine-protein kinase 2 (Homo sapiens) (UniProt Q9HBH9). As to the kind of experiment: Inhibition of MNK2 (unknown origin) at 0.45 uM relative to control.
The target in experiment [26] is Tyrosine-protein kinase receptor UFO (Homo sapiens) (UniProt P30530). Briefly: Inhibition of AXL (unknown origin) at 0.45 uM relative to control.
Experiment [27] has as its system Proto-oncogene tyrosine-protein kinase receptor Ret (Homo sapiens), P07949 [M918T]. Briefly: Inhibition of RET M918T mutant (unknown origin) at 0.45 uM relative to control.
Experiment [28] addresses Tyrosine-protein kinase TXK (Homo sapiens) (UniProt P42681). As to the kind of experiment: Inhibition of TXK (unknown origin) at 0.45 uM relative to control.

Chain of Tyrosine-protein kinase Lyn (Homo sapiens) (P07948 2-512 limits assumed): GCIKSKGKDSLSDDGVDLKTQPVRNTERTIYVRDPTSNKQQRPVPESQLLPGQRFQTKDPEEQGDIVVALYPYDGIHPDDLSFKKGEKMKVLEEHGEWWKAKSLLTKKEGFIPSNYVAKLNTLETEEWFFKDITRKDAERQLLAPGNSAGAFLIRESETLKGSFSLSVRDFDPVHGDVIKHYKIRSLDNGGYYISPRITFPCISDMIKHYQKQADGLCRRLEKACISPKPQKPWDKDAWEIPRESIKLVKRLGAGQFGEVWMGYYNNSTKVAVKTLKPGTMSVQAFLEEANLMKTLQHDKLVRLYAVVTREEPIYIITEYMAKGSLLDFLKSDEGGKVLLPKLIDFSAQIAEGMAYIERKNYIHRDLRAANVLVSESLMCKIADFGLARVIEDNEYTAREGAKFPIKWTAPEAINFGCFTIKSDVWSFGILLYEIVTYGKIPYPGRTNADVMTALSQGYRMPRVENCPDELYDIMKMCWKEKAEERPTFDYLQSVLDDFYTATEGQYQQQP
Chain of Phosphorylase b kinase gamma catalytic chain, liver/testis isoform (Homo sapiens) (P15735 whole entry, canonical isoform): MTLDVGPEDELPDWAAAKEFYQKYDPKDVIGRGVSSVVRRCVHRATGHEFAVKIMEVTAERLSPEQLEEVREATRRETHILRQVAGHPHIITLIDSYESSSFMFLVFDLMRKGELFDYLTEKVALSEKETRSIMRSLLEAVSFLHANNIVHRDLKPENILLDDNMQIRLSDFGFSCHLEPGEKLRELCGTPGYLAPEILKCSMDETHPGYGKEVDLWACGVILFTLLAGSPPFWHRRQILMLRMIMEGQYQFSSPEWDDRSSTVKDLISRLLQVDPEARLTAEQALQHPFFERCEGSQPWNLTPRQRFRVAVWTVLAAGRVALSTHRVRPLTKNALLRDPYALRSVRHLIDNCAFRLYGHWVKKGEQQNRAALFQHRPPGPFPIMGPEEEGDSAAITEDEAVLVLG
Chain of Tyrosine-protein kinase receptor UFO (Homo sapiens) (P30530 whole entry): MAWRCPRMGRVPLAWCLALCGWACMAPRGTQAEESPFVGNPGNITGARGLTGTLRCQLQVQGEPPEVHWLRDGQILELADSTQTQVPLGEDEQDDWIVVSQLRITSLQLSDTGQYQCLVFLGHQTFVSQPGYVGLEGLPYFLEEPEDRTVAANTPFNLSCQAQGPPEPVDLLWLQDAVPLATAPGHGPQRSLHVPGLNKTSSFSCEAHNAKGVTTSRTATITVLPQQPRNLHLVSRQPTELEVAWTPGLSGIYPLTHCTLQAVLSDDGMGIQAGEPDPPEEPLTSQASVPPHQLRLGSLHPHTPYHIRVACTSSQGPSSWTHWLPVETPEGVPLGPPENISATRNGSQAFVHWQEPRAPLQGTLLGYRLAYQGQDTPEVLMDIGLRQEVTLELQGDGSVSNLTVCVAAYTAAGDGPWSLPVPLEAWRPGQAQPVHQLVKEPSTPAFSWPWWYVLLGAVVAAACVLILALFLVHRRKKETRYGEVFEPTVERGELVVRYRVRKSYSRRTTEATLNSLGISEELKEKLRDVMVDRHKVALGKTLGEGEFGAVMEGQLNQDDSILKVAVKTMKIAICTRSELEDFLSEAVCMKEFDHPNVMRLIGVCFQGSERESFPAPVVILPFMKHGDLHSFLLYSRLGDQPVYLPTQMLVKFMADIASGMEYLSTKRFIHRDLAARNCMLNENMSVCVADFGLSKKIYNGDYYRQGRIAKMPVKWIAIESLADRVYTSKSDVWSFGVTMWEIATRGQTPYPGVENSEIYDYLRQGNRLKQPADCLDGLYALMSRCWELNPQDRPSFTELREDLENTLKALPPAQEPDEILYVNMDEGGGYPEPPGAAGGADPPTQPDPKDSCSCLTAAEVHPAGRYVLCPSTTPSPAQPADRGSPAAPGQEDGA
Chain of MAP kinase-interacting serine/threonine-protein kinase 1 (Homo sapiens) (Q9BUB5 whole entry, looked up): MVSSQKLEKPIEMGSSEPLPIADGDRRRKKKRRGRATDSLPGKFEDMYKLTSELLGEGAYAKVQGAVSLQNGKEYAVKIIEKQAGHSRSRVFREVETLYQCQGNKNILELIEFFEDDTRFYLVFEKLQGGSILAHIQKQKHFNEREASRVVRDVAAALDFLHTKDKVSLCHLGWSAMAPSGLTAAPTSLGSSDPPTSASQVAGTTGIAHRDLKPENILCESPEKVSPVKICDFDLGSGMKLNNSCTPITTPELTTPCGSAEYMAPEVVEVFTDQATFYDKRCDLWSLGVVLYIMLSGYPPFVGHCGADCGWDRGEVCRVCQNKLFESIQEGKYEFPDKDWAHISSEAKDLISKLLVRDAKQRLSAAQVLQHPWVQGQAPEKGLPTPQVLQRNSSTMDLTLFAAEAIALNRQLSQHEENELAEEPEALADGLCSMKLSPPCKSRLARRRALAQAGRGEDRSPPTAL
Chain of MAP kinase-interacting serine/threonine-protein kinase 2 (Homo sapiens) (Q9HBH9 whole entry, looked up): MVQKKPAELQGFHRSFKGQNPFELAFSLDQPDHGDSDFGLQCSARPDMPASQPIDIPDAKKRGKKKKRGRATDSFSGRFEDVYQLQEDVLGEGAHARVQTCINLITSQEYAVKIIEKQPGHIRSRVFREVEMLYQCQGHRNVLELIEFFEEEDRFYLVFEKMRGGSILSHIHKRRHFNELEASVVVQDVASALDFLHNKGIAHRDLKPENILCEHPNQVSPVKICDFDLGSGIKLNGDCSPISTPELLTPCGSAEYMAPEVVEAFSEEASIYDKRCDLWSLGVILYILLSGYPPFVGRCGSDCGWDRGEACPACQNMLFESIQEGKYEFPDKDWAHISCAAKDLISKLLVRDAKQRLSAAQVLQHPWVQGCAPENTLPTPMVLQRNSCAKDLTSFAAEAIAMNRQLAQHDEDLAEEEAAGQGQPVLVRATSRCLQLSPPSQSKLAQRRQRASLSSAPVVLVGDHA
Chain of Receptor tyrosine-protein kinase erbB-4 (Homo sapiens) (Q15303 whole entry): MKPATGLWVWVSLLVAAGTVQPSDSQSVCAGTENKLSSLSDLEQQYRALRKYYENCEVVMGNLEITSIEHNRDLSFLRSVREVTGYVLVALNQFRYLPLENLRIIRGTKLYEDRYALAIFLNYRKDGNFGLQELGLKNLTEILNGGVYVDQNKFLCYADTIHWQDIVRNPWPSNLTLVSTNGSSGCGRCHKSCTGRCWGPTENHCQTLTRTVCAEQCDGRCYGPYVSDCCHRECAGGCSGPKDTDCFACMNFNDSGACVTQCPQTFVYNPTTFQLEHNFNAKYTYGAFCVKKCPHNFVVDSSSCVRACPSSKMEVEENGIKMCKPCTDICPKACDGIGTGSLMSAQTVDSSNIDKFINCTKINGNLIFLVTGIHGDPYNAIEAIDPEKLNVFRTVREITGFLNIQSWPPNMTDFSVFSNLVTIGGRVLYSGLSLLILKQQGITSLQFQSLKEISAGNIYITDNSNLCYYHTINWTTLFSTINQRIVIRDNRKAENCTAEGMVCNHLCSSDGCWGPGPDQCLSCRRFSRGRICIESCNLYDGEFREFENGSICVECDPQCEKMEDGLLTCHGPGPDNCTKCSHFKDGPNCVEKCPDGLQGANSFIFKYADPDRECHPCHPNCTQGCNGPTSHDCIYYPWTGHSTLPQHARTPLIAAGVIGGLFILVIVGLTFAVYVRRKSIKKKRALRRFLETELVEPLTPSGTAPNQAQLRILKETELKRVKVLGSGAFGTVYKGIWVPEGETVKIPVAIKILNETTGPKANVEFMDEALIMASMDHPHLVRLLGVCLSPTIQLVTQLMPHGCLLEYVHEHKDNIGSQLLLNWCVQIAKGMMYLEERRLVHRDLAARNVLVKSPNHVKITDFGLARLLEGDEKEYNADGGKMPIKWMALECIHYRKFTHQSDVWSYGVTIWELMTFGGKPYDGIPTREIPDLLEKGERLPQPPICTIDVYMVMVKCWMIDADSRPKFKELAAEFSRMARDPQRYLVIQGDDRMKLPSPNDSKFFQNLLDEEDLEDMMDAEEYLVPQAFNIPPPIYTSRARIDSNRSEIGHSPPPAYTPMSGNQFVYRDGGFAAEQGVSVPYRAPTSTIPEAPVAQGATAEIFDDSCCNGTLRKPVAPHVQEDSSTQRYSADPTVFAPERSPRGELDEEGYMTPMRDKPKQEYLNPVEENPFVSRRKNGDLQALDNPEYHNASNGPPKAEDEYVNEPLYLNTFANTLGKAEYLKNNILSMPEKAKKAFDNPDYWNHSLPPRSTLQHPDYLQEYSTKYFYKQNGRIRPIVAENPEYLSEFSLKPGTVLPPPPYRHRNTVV
Chain of Casein kinase I isoform gamma-2 (Homo sapiens) (P78368 whole entry, looked up, canonical isoform): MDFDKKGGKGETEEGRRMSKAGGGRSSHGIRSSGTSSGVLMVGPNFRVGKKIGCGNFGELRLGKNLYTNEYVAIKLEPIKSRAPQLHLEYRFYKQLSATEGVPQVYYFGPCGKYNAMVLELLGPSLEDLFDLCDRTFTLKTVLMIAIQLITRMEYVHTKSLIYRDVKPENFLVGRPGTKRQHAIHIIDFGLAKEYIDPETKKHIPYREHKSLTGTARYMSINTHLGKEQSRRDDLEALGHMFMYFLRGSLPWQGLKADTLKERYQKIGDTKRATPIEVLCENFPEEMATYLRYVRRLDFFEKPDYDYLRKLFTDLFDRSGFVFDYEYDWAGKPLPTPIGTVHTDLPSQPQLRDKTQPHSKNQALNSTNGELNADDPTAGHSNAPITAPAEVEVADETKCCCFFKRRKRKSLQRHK
Chain of Cyclin-dependent kinase 9 (Homo sapiens) (P50750 whole entry): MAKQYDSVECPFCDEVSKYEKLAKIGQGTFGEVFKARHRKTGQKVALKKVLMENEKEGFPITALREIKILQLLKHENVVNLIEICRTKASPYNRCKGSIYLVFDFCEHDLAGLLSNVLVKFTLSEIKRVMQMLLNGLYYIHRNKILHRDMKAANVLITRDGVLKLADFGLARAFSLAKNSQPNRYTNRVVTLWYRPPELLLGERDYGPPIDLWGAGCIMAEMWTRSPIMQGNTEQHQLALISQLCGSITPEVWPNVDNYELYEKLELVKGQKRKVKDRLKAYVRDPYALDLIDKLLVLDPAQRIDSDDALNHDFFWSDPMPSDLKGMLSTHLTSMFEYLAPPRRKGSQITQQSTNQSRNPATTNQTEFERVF

Turning to `Cc1[nH]nc(C2CC2)c1-c1ccc2c(NC(=O)C3CC3)noc2c1`, the inhibition (in general, the drop in the measured response relative to a control, in per cent) was -5.3% in the experiment listed under Homo sapiens [1]; 2.3% in experiment [2]; 1.3% in experiment [3]; -2.7% in experiment [4]; 0.3% in experiment [5]; -0.3% in experiment [6]. For the same compound, the inhibition in experiment [7] came to 6.7%; in experiment [8], 11.3%.
Regarding `COC(=O)Nc1noc2cc(-c3c(-c4ccccn4)n[nH]c3C)ccc12`, the inhibition in experiment [9] was 0.3%; in [10], 3.3%; in experiment [11], 2%; in experiment [12] it was -2.7%; in [13], -0.3%.
Turning to `Cc1n[nH]c(C)c1-c1ccc2c(NC(=O)c3ccc(N4CCN(C)CC4)cc3)n[nH]c2c1`, the inhibition in the experiment filed under Homo sapiens [14] was 3%; in experiment [15], 0.3%; in experiment [16], -1.7%; in [17] it was 0.7%; in experiment [18] it was 5%; in experiment [19], 12.7%. The inhibition in [20] was 96.7%; in experiment [21], -7%; in experiment [22], 11.7%; in experiment [23], 4%; in [24], 6.7%; in [25], -1%. Also, the inhibition in experiment [26] is 0.3%; in [27], 57.7%; in experiment [28], -0.7%.
